Reference: patent publication US20240174680A1, “CDK2 INHIBITORS AND METHODS OF USING THE SAME” (Cedilla Therapeutics, Inc., priority 2021, published 2024)

Biological target: CDK2/Cyclin E1 (Homo sapiens, UniProt P24941)
Assay: CDK2/Cyclin E1 Caliper LabChip EZ Reader mobility shift assay
Type: biochemical
Parameters: purchased Eurofins 14-475
Conditions: read-out: Caliper Assay (CDK2/CCNE1): IC50
Method in brief: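 Mobility-shift kinase assay: compound titrations preincubated 30 min with enzyme and ATP, reaction started with 5-FAM-QSPKKG-CONH2 peptide. Final 2.5 nM CDK2/Cyclin E1, 100 μM ATP, 1.5 μM peptide, HEPES pH 7.5; stopped with EDTA after 100 min. IC50 from four-parameter fit of normalized conversion ratio.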

CC(O[C@H](C)[C@H](NC(=O)[C@@H]1CN(C(=O)c2cncs2)CC12CN(C(=O)[C@H]1CC1(C)C)C2)C(=O)N1CCC(F)(F)CC1)C1CCC(F)(F)CC1 (stereo partly shown) [I-361]
IC50: ≤ 10 nM

CNC(=O)C(NC(=O)[C@@H]1CN(C(=O)c2cncs2)CC12CN(C(=O)[C@H]1CC1(C)C)C2)c1cccc(C2CCCCC2)n1 (stereo partly shown) [I-362]
IC50: 10 to 100 nM

Cc1ccc(CNC(=O)[C@@H]2CN(C(=O)c3cnn(Cc4ccccc4)c3)CC23CN(C(=O)[C@H]2CC2(C)C)C3)cc1 [I-363]
IC50: 1000 to 10000 nM

Cc1ccc(CNC(=O)[C@@H]2CN(C(=O)c3cnn(Cc4ccccc4)c3)CC23CN(C(=O)[C@H]2CC2(C)C)C3)cn1 [I-364]
IC50: > 10000 nM

Cc1ccc(CNC(=O)[C@@H]2CN(C(=O)c3cnn(Cc4ccccc4)c3)CC23CN(C(=O)[C@H]2CC2(C)C)C3)nc1 [I-365]
IC50: 1000 to 10000 nM

Cc1ccc(C(C)NC(=O)[C@@H]2CN(C(=O)c3cnn(Cc4ccccc4)c3)CC23CN(C(=O)[C@H]2CC2(C)C)C3)nn1 (stereo partly shown) [I-366]
IC50: 1000 to 10000 nM

CNC(=O)[C@@H](NC(=O)[C@@H]1CN(C(=O)c2cnn(Cc3ccccc3)c2)CC12CN(C(=O)[C@H]1CC1(C)C)C2)[C@@H](C)SCc1ccccc1 [I-368]
IC50: 100 to 1000 nM

COC[C@H]1CCCN(C(=O)[C@@H](NC(=O)[C@@H]2CN(C(=O)c3cncs3)CC23CN(C(=O)[C@H]2CC2(C)C)C3)[C@@H](C)O[C@@H](C)C2CCCCC2)C1 [I-369]
IC50: ≤ 10 nM

CNC(=O)[C@@H](NC(=O)[C@@H]1CN(C(=O)c2cncs2)CC12CN(C(=O)[C@H]1CC1(C)C)C2)[C@@H](C)OCC1CCCC2(CC2)C1 (stereo partly shown) [I-370]
IC50: ≤ 10 nM

COc1ccc(CNC(=O)[C@@H]2CN(C(=O)c3cnn(Cc4ccccc4)c3)CC23CN(C(=O)[C@H]2CC2(C)C)C3)nn1 [I-371]
IC50: > 10000 nM

CNC(=O)[C@@H](NC(=O)[C@@H]1CN(C(=O)c2cnn(Cc3ccccc3)c2)CC12CN(C(=O)[C@H]1CC1(C)C)C2)[C@@H](C)OCC1CCC(C)(C)CC1 [I-372]
IC50: ≤ 10 nM

CNC(=O)[C@@H](NC(=O)[C@@H]1CN(C(=O)Cc2cnn(Cc3ccccc3)c2)CC12CN(C(=O)[C@H]1CC1(C)C)C2)[C@@H](C)OCc1ccccc1 [I-373]
IC50: > 10000 nM

COC[C@H]1CCCN(C(=O)[C@@H](NC(=O)[C@@H]2CN(C(=O)c3cncs3)CC23CN(C(=O)[C@H]2CC2(C)C)C3)[C@@H](C)OC(C)C2CCCCC2)C1 (stereo partly shown) [I-374]
IC50: ≤ 10 nM

CNC(=O)[C@@H](NC(=O)[C@@H]1CN(C(=O)c2cncs2)CC12CN(C(=O)[C@H]1CC1(C)C)C2)C1(OCc2ccccc2)CC1 [I-375]
IC50: 100 to 1000 nM

CNC(=O)[C@@H](NC(=O)[C@@H]1CN(C(=O)c2cncs2)CC12CN(C(=O)[C@H]1CC1(C)C)C2)[C@H](O)CC1CCCCC1 [I-379]
IC50: > 10000 nM

C[C@@H](OCC1CCC(F)(F)CC1)[C@H](NC(=O)[C@@H]1CN(C(=O)c2cncs2)CC12CN(C(=O)[C@H]1CC1(C)C)C2)C(=O)N1CCC2(CC1)CC2 [I-380]
IC50: ≤ 10 nM

Cc1ccc(CNC(=O)[C@H]2CN(C(=O)c3cnn(Cc4ccccc4)c3)CC23CN(C(=O)[C@H]2CC2(C)C)C3)nn1 [I-381]
IC50: > 10000 nM

CC1(C)C[C@@H]1C(=O)N1CC2(CN(C(=O)c3cnn(Cc4ccccc4)c3)C[C@H]2C(=O)NC[C@H]2CC[C@H](C)CC2)C1 [I-382]
IC50: 1000 to 10000 nM

C[C@@H](OCC1CCC(F)(F)CC1)[C@H](NC(=O)[C@@H]1CN(C(=O)c2cncs2)CC12CN(C(=O)[C@H]1CC1(C)C)C2)C(=O)N1CCC(O)CC1 [I-383]
IC50: ≤ 10 nM

CNC(=O)[C@@H](NC(=O)[C@@H]1CN(C(=O)Cc2cnn(C)c2)CC12CN(C(=O)[C@H]1CC1(C)C)C2)[C@@H](C)OCc1ccccc1 [I-384]
IC50: > 10000 nM

COC1CCN(C(=O)[C@@H](NC(=O)[C@@H]2CN(C(=O)c3cncs3)CC23CN(C(=O)[C@H]2CC2(C)C)C3)[C@@H](C)OCC2CCC(F)(F)CC2)CC1 [I-385]
IC50: ≤ 10 nM

C[C@@H](OCC1CCC(F)(F)CC1)[C@H](NC(=O)[C@@H]1CN(C(=O)c2cncs2)CC12CN(C(=O)[C@H]1CC1(C)C)C2)C(=O)N1CCC(C)(C)CC1 [I-386]
IC50: ≤ 10 nM
